“Also recorded” adds a separate entry of the source. Marks after values point to notes of the source that are not given here.
Assays:
[1] = system: ischemic-injured porcine ileal mucosa; test: Morphometric assessment of epithelial restitution (histological examination); assay type: cell-based; settings: Indo 5 μM, COMPOUND A 1 μM, mean±SE, n=3
Method: (§1) Six to eight-week-old Yorkshire crossbred pigs of either sex were housed individually, and maintained on a commercial pelleted feed. Pigs were held off feed for 24 hours prior to experimental surgery. General anesthesia was induced with xylazine (1.5 mg/kg, IM), ketamine (11 mg/kg, IM), and thiopental (15 mg/kg, IV) and was maintained with intermittent infusion of thiopental (6-8 mg/kg/hr). Pigs were placed on a heating pad and ventilated with 100% O2 via a tracheotomy using a time-cycled ventilator. The jugular vein and carotid artery were cannulated and blood gas analysis was performed to confirm normal pH and partial pressures of CO2 and O2. Lactated Ringers solution was administered intravenously at a maintenance rate of 15 ml/kg/hr. The ileum was approached via ventral midline incision. Ileal segments were delineated by ligating the intestine at 10 cm intervals, and subjected to ischemia by occluding the local mesenteric blood supply for 45 minutes.
Tissues were taken at 0, 60, and 180 minutes for routine histologic evaluation. Tissues were sectioned (5 μm) and stained with hematoxylin and eosin. For each tissue, 3 sections were evaluated. Four well oriented villi and crypts were identified in each section. Villus length was obtained using a micrometer in the eye piece of a light microscope. In addition, the height of the epithelial-covered portion of each villus was measured. The surface area of the villus was calculated using the formula for the surface area of a cylinder. The formula was modified by subtracting the area of the base of the villus, and multiplying by a factor accounting for the variable position at which each villus was cross-sectioned (Gastroenterology 1993; 104:440-471). The percentage of the villous surface area that remained denuded was calculated from the total surface area of the villus and the surface area of the villus covered by epithelium. The percent denuded villous surface area was used as an index of epithelial restitution.
In table 1, values represents means±SE for % villus surface area denuded and Villus height; n=3. Tissues were mammalian ileum subjected to 45 min ischemia in vivo, after which they were mounted in Ussing chambers for monitoring of recovery responses. Tissues were harvested at 0 min, 60 min, and 180 min post-ischemia during the in vitro recovery phase, fixed in 10% buffered formalin, and processed for histological examination according to standard protocols. Indomethacin (Indo) was administered to select tissues a 5 μM, and COMPOUND A was given at 1 μM. Values lacking common superscript.(*,#) differ by P<0.05.

[2] = system: ischemia-injured porcine ascending colon; test: Serosal to mucosal 3H-mannitol fluxes in colon; assay type: cell-based; settings: ischemic porcine ascending colon, FIG. 6
Text: (§2) According to the same procedure described in Example 1 except for using colon instead of ileum, recovery of mucosal barrier function in ischemic condition by the COMPOUND A was investigated.
(§3) A) Change in short circuit current response to COMPOUND A in ischemia-injured porcine ascending colon, B) Trans epithelial electrical resistance (TER) in response to COMPOUND A in ischemia-injured porcine ascending colon and C) Serosal to mucosal ^3H-mannitol fluxes in response to COMPOUND A in ischemia-injured porcine ascending colon were shown in FIGS. 4 to 6 respectively.

mammary carcinoma = test: Incidence of mammary carcinoma, 104-week oral gavage study; assay type: in vivo; settings: 104 weeks, female rats
Method: Female Crl:CD(SD)IGS BR VAF/Plus rats were assigned to 4 study groups (65/group). Groups 2 through 4 received 20, 100, or 400 μg/kg/day of COMPOUND A, respectively, by oral gavage for 104 weeks. The control group (Group 1) received 10 the vehicle, a 1% aqueous solution of Polysorbate 80. The dose volume was 5 mL/kg/day for all groups. When unscheduled death of animal occurred during the study period, a necropsy was performed on the animal. After 104 weeks of treatment, all surviving animals were sacrificed and necropsied. Each rat was evaluated microscopically for the occurrence of mammary carcinoma.

[3] = system: ischemia-injured porcine ileum; test: Ussing chamber: short circuit current (Isc) and transepithelial electrical resistance (TER); assay type: cell-based; settings: for absolute change in Isc (Δ Isc): mean±SE
Method: as §1
Following the 45-minute ischemic period, tissues were harvested from the pig and the mucosa was stripped from the seromuscular layer in oxygenated (95% O2/ 5% CO2) Ringer's solution (mmol/l: Na^+, 154; K+, 6.3; Cl^−, 137; HCO3^−, 24; pH 7.4) containing 5×10^−6 M indomethacin to prevent endogenous PG production during the stripping procedure. Tissues were then mounted in 3.14 cm^2 aperture Ussing chambers. For Ussing chamber experiments, ileal tissues from one pig were mounted on multiple Ussing chambers and subjected to different in vitro treatments. Tissues were bathed on the serosal and mucosal sides with 10 ml Ringer's solution. The serosal bathing solution contained 10 mM glucose, and was osmotically balanced on the mucosal side with 10 mM mannitol. Bathing solutions were oxygenated (95% O2/5% CO2) and circulated in water-jacketed reservoirs. The spontaneous potential difference (PD) was measured using Ringer-agar bridges connected to calomel electrodes, and the PD was short-circuited through Ag—AgCl electrodes using a voltage clamp that corrected for fluid resistance. Transepithelial electrical resistance (Ω.cm^2) was calculated from the spontaneous PD and short-circuit current (Isc). If the spontaneous PD was between −1.0 and 1.0 mV, tissues were current clamped at ±100 μA for 5 seconds and the PD recorded. Short-circuit current and PD were recorded at 15-minute intervals over a 4-hour experiment.
After tissues were mounted on Ussing chambers, tissues were allowed to acclimate for a period of 30 minutes to achieve stable baseline measurements. Tissues were then treated with varying doses of COMPOUND A (13,14-dihydro-15-keto-16,16-difluoro-PGE1) (0.01 μM, 0.1 μM, and 1 μM) by adding the compound to the mucosal bathing solution (t=30 min).
Data were reported as means±SE. All data were analyzed by using an ANOVA for repeated measures, except where the peak response was analyzed by using a standard one-way ANOVA (Sigmastat, Jandel Scientific, San Rafael, Calif.). A Tukey's test was used to determine differences between treatments following ANOVA.

[4] = system: ischemia-injured porcine ileum; test: Mucosal-to-serosal 3H-mannitol flux in Ussing chamber; assay type: cell-based; settings: 1 μM; n=4; P<0.05
Method: as §1, with “Lactated Ringers solution was administered intravenously at a maintenance rate of 15 ml/kg/hr. The ileum was approached via ventral midline incision. Ileal segments were delineated by ligating the intestine at 10 cm intervals, and subjected to ischemia by occluding the local mesenteric blood supply for 45 minutes.” left out
Following the 45-minute ischemic period, tissues were harvested from the pig and the mucosa was stripped from the seromuscular layer in oxygenated (95% O2/ 5% CO2) Ringer's solution (mmol/l: Na^+, 154; K+, 6.3; Cl^−, 137; HCO3^−, 24; pH 7.4) containing 5×10^−6 M indomethacin to prevent endogenous PG production during the stripping procedure. […] The spontaneous potential difference (PD) was measured using Ringer-agar bridges connected to calomel electrodes, and the PD was short-circuited through Ag—AgCl electrodes using a voltage clamp that corrected for fluid resistance. Transepithelial electrical resistance (Ω.cm^2) was calculated from the spontaneous PD and short-circuit current (Isc). […]

[5] = system: ischemia-injured porcine ascending colon; test: Ussing chamber: short circuit current and TER in colon; assay type: cell-based; settings: ischemic porcine ascending colon
Text: as §2, §3

barrier function = settings: Am. J. Physiol. Gastrointest. Liver Physiol. 281:G375-81, 2001; cited from earlier work
[6] = 1 μM applied to mucosal side, indomethacin 5×10^−6 M Ringer's, P<0.01

For `CCCCC(F)(F)C(=O)CCC1C(O)CC(=O)C1CCCCCCC(=O)O` (centres unmarked) [COMPOUND A, 13,14-dihydro-15-keto-16,16-difluoro-PGE1], which “Epithelial surface area denuded (%)” value ([1]; recovery time 60 min) is on record?
Its value is 4.2 ± 2.5* %.

And the “Villus height (mm)” value ([1]; recovery time 60 min)?
Its value is 0.21 ± 0.02* mm.

What about the “Epithelial surface area denuded (%)” value ([1]; recovery time 180 min) of the same compound?
Its value is 0 ± 0** %.

And the “Villus height (mm)” value ([1]; recovery time 180 min)?
Its value is 0.20 ± 0.01* mm.

And the “serosal-to mucosal fluxes of 3H-mannitol (result in words)” value [2]?
Its value is “recuded serosal-to mucosal fluxes of ^3H-mannitol”.

What about the “Number of animals with mammary carcinoma” value (mammary carcinoma; 20 μg/kg/day oral gavage, 65 examined (control 12 of 65)) of the same compound?
The value was 6.

What about the “Number of animals with mammary carcinoma” value (mammary carcinoma; 100 μg/kg/day oral gavage, 65 examined (control 12 of 65)) of the same compound?
Its value is 5.

And the “Number of animals with mammary carcinoma” value (mammary carcinoma; 400 μg/kg/day oral gavage, 63 examined (control 12 of 65))?
Its value is 4.

And the “incidence of mammary carcinoma (result in words)” value (mammary carcinoma; 20, 100 or 400 μg/kg/day oral gavage)?
Its value is “reduced the incidence of mammary carcinoma”.

And the “TER (result in words)” value ([3]; 0.01 μM, 0.1 μM and 1 μM applied to mucosal side)?
Its value is “dose-dependent increases in TER”.

What about the “absolute change in Isc (Δ Isc)” value ([3]; 0.01 μM) of the same compound?
The value was 2±0.8.

And the “transepithelial electrical resistance (TER) (FIG. 1 legend, words)” value ([3]; 0.1 μM and 1 μM doses, added after 30-min equilibration, n=6)?
The value was “marked elevations in transepithelial electrical resistance (TER)”.

What about the “Isc, electrogenic Cl− secretion (result in words)” value ([3]; 0.1 μM and 1 μM, dose-dependent) of the same compound?
Its value is “sharp and significant (P<0.05) peaks in Isc”.

What about the “absolute change in Isc (Δ Isc)” value ([3]; 0.1 μM) of the same compound?
Its value is 16±4.5.

What about the “increase in TER” value [3, 6] of the same compound?
The value was 2 fold.

What about the ΔTER [3, 6] of the same compound?
The ΔTER was 26 Ω.

And the “absolute change in Isc (Δ Isc)” value ([3]; 1 μM)?
Its value is 29±5.1.

What about the “Cl− secretion indicated by Isc and ΔIsc (FIG. 2 legend, words)” value ([3]; increasing doses, n=6) of the same compound?
The value was “Significant (P<0.05) increases in Cl^− secretion”.

And the “3H-mannitol mucosal-to-serosal flux (result in words)” value [4]?
The value was “return of ^3H-mannitol flux to non-ischemic control levels; also recorded: reduced ^3H-mannitol mucosal-to-serosal fluxes to non-ischemic control levels”.

And the “Isc (result in words)” value ([5]; FIG. 4)?
Its value is “increased Isc”.

What about the “TER (result in words)” value ([5]; FIG. 5) of the same compound?
Its value is “increased”.

For `COc1ccc2c(c1)c(CC(=O)O)c(C)n2C(=O)c1ccc(Cl)cc1` [Indo, Indomethacin, reference compound], which “Epithelial surface area denuded (%)” value ([1]; recovery time 60 min) is on record?
Its value is 6.6 ± 2.6* %.

And the “Villus height (mm)” value ([1]; recovery time 60 min)?
Its value is 0.16 ± 0.01* mm.

What about the “Epithelial surface area denuded (%)” value ([1]; recovery time 180 min) of the same compound?
The value was 0 ± 0** %.

And the “Villus height (mm)” value ([1]; recovery time 180 min)?
The value was 0.14 ± 0.03* mm.

With deoxy-PGE1 as the compound, how does the “effects on barrier function (result in words)” value (barrier function) read?
The value was “had not effects”.

From patent US20060281818A1, “Method for treating mucosal disorders” (SUCAMPO AG, NORTH CAROLINA STATE UNIVERSITY, priority 2005, published 2006)
